# According to publication PMC10376326, “Novel Acylselenourea Derivatives: Dual Molecules with Anticancer and Radical Scavenging Activity” (Antioxidants, 2023):
# Tested on: HTB-54 (lung) cancer cell line
# Test: MTT cell viability assay, HTB-54
# Format: cell-based, human
# Settings: Homo sapiens, HTB-54, 48 h, read-out: Cell growth %, HTB-54, 10 µM, 48 h, MTT
# Experimental: (§1) Cell lines were purchased from the American Type Culture Collection (ATCC). Cell lines MDA-MB-231, HTB-54, DU-145, and BEAS-2B were cultured in RPMI 1640 medium (Gibco, Thermo Fisher Scientific, Gaithersburg, MD, USA) supplemented with 10% fetal bovine serum (FBS; Gibco), 100 units/mL penicillin, and […] streptomycin (Gibco). HT-29 cell line was grown in McCoy’s 5A (Gibco), 10% FBS, 100 units/mL penicillin, and 100 μg/mL streptomycin. Cells were maintained at 37 °C and 5% CO2. The culture medium was changed every three days.
# (§2) The cell viability of each compound was measured by MTT colorimetric assay. Each compound was dissolved in DMSO at a concentration of 0.01 M. Each compound was tested at two different concentrations (10 and 50 µM) in MDA-MB-231 (breast), HTB-54 (lung), DU-145 (prostate), and HT-29 (colon) human cancer cell lines. Serial dilutions were prepared with supplemented culture medium. […] IC50 and selectivity indexes (SI) were determined.
# (§3) Briefly, 1 × 10^4 tumor cells per well were grown in 96-well plates for 24 h. Then, these cells were incubated for 48 h with either DMSO (control) or a different concentration of each of the tested compounds. The cell viability was determined by adding 20 μL of MTT two hours and a half before the termination point. After this time, the culture medium was removed. The resulting formazan crystals were dissolved in 50 μL of DMSO, and the absorbance was measured at 570 nm. Results are expressed as % cell growth. The data were obtained from at least three independent experiments performed in quadruplicate.
row,SMILES,activity at 10 µM
1,"C#CCNC(=[Se])NC(=O)/C=C/c1ccco1 [Compound 3.III, (E)-3-(furan-2-yl)-N-(prop-2-in-1-ylcarbamoselenoyl)acrylamide]",74.2 ± 4%

# Same assay, conditions: Homo sapiens, HTB-54, 48 h, read-out: Cell growth %, HTB-54, 50 µM, 48 h, MTT
row,SMILES,activity at 50 µM
1,"C#CCNC(=[Se])NC(=O)/C=C/c1ccco1 [Compound 3.III, (E)-3-(furan-2-yl)-N-(prop-2-in-1-ylcarbamoselenoyl)acrylamide]",35.3 ± 5.7%

# Tested on: HT-29 (colon) cancer cell line
# Test: MTT cell viability assay, HT-29
# Format: cell-based
# Settings: Homo sapiens, HT-29, 48 h, HT-29, 50 µM, read-out: Cell growth %
# Experimental: as §1, §2, §3
row,SMILES,activity at 50 µM
1,"C#CCNC(=[Se])NC(=O)/C=C/c1ccco1 [Compound 3.III, (E)-3-(furan-2-yl)-N-(prop-2-in-1-ylcarbamoselenoyl)acrylamide]",51.4 ± 6%

# Tested on: not given
# Test: not given
# Settings: not given
row,SMILES,melting point
1,"C#CCNC(=[Se])NC(=O)/C=C/c1ccco1 [Compound 3.III, (E)-3-(furan-2-yl)-N-(prop-2-in-1-ylcarbamoselenoyl)acrylamide]",118 to 119 °C

# Tested on: DU-145 (prostate) cancer cell line
# Test: MTT cell viability assay, DU-145
# Format: cell-based, human
# Settings: Homo sapiens, DU-145, 48 h, read-out: Cell growth %, DU-145, 10 µM, 48 h, MTT
# Experimental: as §1, §2, §3
row,SMILES,activity at 10 µM
1,"C#CCNC(=[Se])NC(=O)/C=C/c1ccco1 [Compound 3.III, (E)-3-(furan-2-yl)-N-(prop-2-in-1-ylcarbamoselenoyl)acrylamide]",86.5 ± 9.3%

# Same assay, conditions: Homo sapiens, DU-145, 48 h, read-out: Cell growth %, DU-145, 50 µM, 48 h, MTT
row,SMILES,activity at 50 µM
1,"C#CCNC(=[Se])NC(=O)/C=C/c1ccco1 [Compound 3.III, (E)-3-(furan-2-yl)-N-(prop-2-in-1-ylcarbamoselenoyl)acrylamide]",24.7 ± 4.9%

# Tested on: MDA-MB-231 (breast) cancer cell line
# Test: MTT cell viability assay, MDA-MB-231
# Format: cell-based, human
# Settings: Homo sapiens, MDA-MB-231, 48 h, read-out: Cell growth %, MDA-MB-231, 10 µM, 48 h, MTT
# Experimental: as §1, §2, §3
row,SMILES,activity at 10 µM
1,"C#CCNC(=[Se])NC(=O)/C=C/c1ccco1 [Compound 3.III, (E)-3-(furan-2-yl)-N-(prop-2-in-1-ylcarbamoselenoyl)acrylamide]",66.8 ± 7.2%

# Same assay, conditions: Homo sapiens, MDA-MB-231, 48 h, read-out: Cell growth %, MDA-MB-231, 50 µM, 48 h, MTT
row,SMILES,activity at 50 µM
1,"C#CCNC(=[Se])NC(=O)/C=C/c1ccco1 [Compound 3.III, (E)-3-(furan-2-yl)-N-(prop-2-in-1-ylcarbamoselenoyl)acrylamide]",20.1 ± 8%

# Tested on: not listed separately
# Test: DPPH radical scavenging assay
# Format: biochemical
# Settings: 0.003 mg/mL, 0 min
# Experimental: Different methods are available to quantify the antioxidant capacity of natural or novel molecules. Notable among these are the ABTS^•+ and DPPH^• methods, which measure the quenching efficiency in vitro for known concentrations of preformed radicals. In this work, the DPPH^• colorimetric assay was carried out. Measurements were recorded on a BioTeck PowerWave XS spectrophotometer (BioTeck Instruments, Winooski, VT, USA) and data were collected using KCJunior v.1.41. software (BioTeck Instruments, Winooski, VT, USA). Compounds with potent activity were selected to further determine their protective effect against ROS-induced cell death caused by H2O2.
# DPPH colorimetric assay was performed to determine the in vitro radical scavenging activity of the acylselenourea derivatives. DPPH assay was performed as described by Svinyarov. For each acylselenourea, a stock solution of 1 mg/mL in dimethyl sulfoxide (DMSO) was made, and these solutions were used to prepare the different concentrations employed in the assay. The compounds were tested at two different concentrations (0.003 and 0.03 mg/mL). Intermediate solutions were prepared in methanol and a volume of 100 µL of each was added to each well of the plate. Then, 100 µL of DPPH^• (previously prepared at a concentration of 0.04 mg/mL in methanol and preserved in the dark) was added to the previous methanolic acylselenourea solutions. The discoloration of the purple radical to the yellow reduced form was followed at 517 nm at different time points (0, 5, 15, 30, 60, 90, and 120 min). Ascorbic acid and trolox were used as positive controls. All measurements were carried out in triplicate. Results are expressed as the percentage of the radicals scavenged, calculated using the following formula: (1) % DPPH radical scavenging=Acontrol - Asample/Acontrol × 100 where Acontrol refers to the absorbance of the negative control and Asample refers to the absorbance of the tested compounds. Results are expressed as percentage of DPPH radical scavenging ± SD.
row,SMILES,inhibition
1,"C#CCNC(=[Se])NC(=O)/C=C/c1ccco1 [Compound 3.III, (E)-3-(furan-2-yl)-N-(prop-2-in-1-ylcarbamoselenoyl)acrylamide]",0.9 ± 1.9%

# Same assay, conditions: 0.003 mg/mL, 5 min
row,SMILES,inhibition
1,"C#CCNC(=[Se])NC(=O)/C=C/c1ccco1 [Compound 3.III, (E)-3-(furan-2-yl)-N-(prop-2-in-1-ylcarbamoselenoyl)acrylamide]",1.2 ± 1.8%

# Same assay, conditions: 0.003 mg/mL, 15 min
row,SMILES,inhibition
1,"C#CCNC(=[Se])NC(=O)/C=C/c1ccco1 [Compound 3.III, (E)-3-(furan-2-yl)-N-(prop-2-in-1-ylcarbamoselenoyl)acrylamide]",1.9 ± 1.7%

# Same assay, conditions: 0.003 mg/mL, 30 min
row,SMILES,inhibition
1,"C#CCNC(=[Se])NC(=O)/C=C/c1ccco1 [Compound 3.III, (E)-3-(furan-2-yl)-N-(prop-2-in-1-ylcarbamoselenoyl)acrylamide]",2.7 ± 1.7%

# Same assay, conditions: 0.003 mg/mL, 60 min
row,SMILES,inhibition
1,"C#CCNC(=[Se])NC(=O)/C=C/c1ccco1 [Compound 3.III, (E)-3-(furan-2-yl)-N-(prop-2-in-1-ylcarbamoselenoyl)acrylamide]",4.1 ± 1.7%

# Same assay, conditions: 0.003 mg/mL, 90 min
row,SMILES,inhibition
1,"C#CCNC(=[Se])NC(=O)/C=C/c1ccco1 [Compound 3.III, (E)-3-(furan-2-yl)-N-(prop-2-in-1-ylcarbamoselenoyl)acrylamide]",5.3 ± 1.7%

# Same assay, conditions: 0.003 mg/mL, 120 min
row,SMILES,inhibition
1,"C#CCNC(=[Se])NC(=O)/C=C/c1ccco1 [Compound 3.III, (E)-3-(furan-2-yl)-N-(prop-2-in-1-ylcarbamoselenoyl)acrylamide]",6.2 ± 1.6%

# Same assay, conditions: 0.03 mg/mL, 0 min
row,SMILES,inhibition
1,"C#CCNC(=[Se])NC(=O)/C=C/c1ccco1 [Compound 3.III, (E)-3-(furan-2-yl)-N-(prop-2-in-1-ylcarbamoselenoyl)acrylamide]",2.6 ± 1.3%

# Same assay, conditions: 0.03 mg/mL, 5 min
row,SMILES,inhibition
1,"C#CCNC(=[Se])NC(=O)/C=C/c1ccco1 [Compound 3.III, (E)-3-(furan-2-yl)-N-(prop-2-in-1-ylcarbamoselenoyl)acrylamide]",6.3 ± 1.1%

# Same assay, conditions: 0.03 mg/mL, 15 min
row,SMILES,inhibition
1,"C#CCNC(=[Se])NC(=O)/C=C/c1ccco1 [Compound 3.III, (E)-3-(furan-2-yl)-N-(prop-2-in-1-ylcarbamoselenoyl)acrylamide]",10.9 ± 0.9%

# Same assay, conditions: 0.03 mg/mL, 30 min
row,SMILES,inhibition
1,"C#CCNC(=[Se])NC(=O)/C=C/c1ccco1 [Compound 3.III, (E)-3-(furan-2-yl)-N-(prop-2-in-1-ylcarbamoselenoyl)acrylamide]",17.5 ± 0.4%

# Same assay, conditions: 0.03 mg/mL, 60 min
row,SMILES,inhibition
1,"C#CCNC(=[Se])NC(=O)/C=C/c1ccco1 [Compound 3.III, (E)-3-(furan-2-yl)-N-(prop-2-in-1-ylcarbamoselenoyl)acrylamide]",28.4 ± 0.4%

# Same assay, conditions: 0.03 mg/mL, 90 min
row,SMILES,inhibition
1,"C#CCNC(=[Se])NC(=O)/C=C/c1ccco1 [Compound 3.III, (E)-3-(furan-2-yl)-N-(prop-2-in-1-ylcarbamoselenoyl)acrylamide]",37.1 ± 0.3%

# Same assay, conditions: 0.03 mg/mL, 120 min
row,SMILES,inhibition
1,"C#CCNC(=[Se])NC(=O)/C=C/c1ccco1 [Compound 3.III, (E)-3-(furan-2-yl)-N-(prop-2-in-1-ylcarbamoselenoyl)acrylamide]",45.9 ± 0.6%
